Values after ≈ are worked out from the molar mass of the structure shown. Where two headings read alike, the source gives them in different places.
Columns and labels:
A. fumigatus ATCC 204305 = assay: Broth microdilution antifungal susceptibility, NCCLS M38-A; assay type: cell-based, Aspergillus fumigatus
Blastomyces dermatitidis = assay: as above; assay type: cell-based; details: for MIC: Blastomyces dermatitidis
A. flavus ATCC 204304 = assay: as above; assay type: cell-based, Aspergillus flavus
Candida parapsilosis [1] = details: strain 92019; 95% growth inhibition
Fusarium solani = assay: Broth microdilution antifungal susceptibility, NCCLS M38-A; assay type: cell-based
C. posadasii = assay: microbe, parasite or virus in culture; assay type: cell-based, Coccidioides posadasii; details: 80% growth inhibition
S. apiospermum = assay: Broth microdilution antifungal susceptibility, NCCLS M38-A; assay type: cell-based, Scedosporium apiospermum; details: for MIC: Scedosporium apiospermum
Histoplasma capsulatum = assay type: cell-based; details: 50% growth inhibition
Cryptococcus neoformans = assay: Broth microdilution antifungal susceptibility, NCCLS M38-A; details: for MIC: Cryptococcus neoformans
C. immitis = assay: microbe, parasite or virus in culture; assay type: cell-based, Coccidioides immitis; details: 80% growth inhibition
Candida parapsilosis [2] = assay: microbe, parasite or virus in culture; details: Lodderomyces parapsilosis, read-out: MIC0 C. parapsilosis 92019
[3] = minimal concentration inhibiting >95% growth, average of at least two assays (except I-l and I-x)

C[C@@H]1[C@H](O)[C@@H](C)/C=C/C=C/C=C/C=C/C=C/C=C/C=C/[C@H](O[C@@H]2O[C@H](C)[C@@H](O)[C@H](N)[C@@H]2O)C[C@@H]2O[C@](O)(C[C@@H](O)C[C@@H](O)[C@H](O)CC[C@@H](O)C[C@@H](O)CC(=O)O[C@H]1C)C[C@H](O)[C@H]2C(=O)O [Amphotericin B, reference compound]
MIC0 A. fumigatus ATCC 204305 (A. fumigatus ATCC 204305; [3]): 1.53 µg/mL | MIC B. dermatitidis Gu (Blastomyces dermatitidis; strain Gu, 50% growth inhibition): 2 µg/mL (≈ 2.16 µM) | MIC B. dermatitidis Kr (Blastomyces dermatitidis; strain Kr, 50% growth inhibition): 1 µg/mL (≈ 1.08 µM) | MIC B. dermatitidis V (Blastomyces dermatitidis; strain V, 50% growth inhibition): 1 µg/mL (≈ 1.08 µM) | MIC0 A. flavus ATCC 204304 (A. flavus ATCC 204304; [3]): 1.67 µg/mL | MIC0 C. parapsilosis 92019 (Candida parapsilosis [1]): 1 µg/mL | MIC F. solani 96-1 (Fusarium solani; strain 96-1, 50% growth inhibition, range = minimum and maximum of multiple assays): 1 to 2 µg/mL | MIC C. posadasii C735 (C. posadasii; strain C735): 1 µg/mL (≈ 1.08 µM) | MIC C. posadasii RMSCC 2127 (C. posadasii; strain RMSCC 2127): 1 µg/mL (≈ 1.08 µM) | MIC C. posadasii Silveria (C. posadasii; strain Silveria): 1 µg/mL (≈ 1.08 µM) | MIC S. apiospermum 94-54 (S. apiospermum; strain 94-54, 50% growth inhibition, range = minimum and maximum of multiple assays): >32 µg/mL | MIC S. apiospermum 98-38 (S. apiospermum; strain 98-38, 50% growth inhibition, range = minimum and maximum of multiple assays): 4 µg/mL (≈ 4.33 µM) | MIC S. apiospermum 98-89 (S. apiospermum; strain 98-89, 50% growth inhibition, range = minimum and maximum of multiple assays): 8 µg/mL (≈ 8.66 µM) | MIC0 C. krusei 6258 (Candida krusei; strain 6258, 95% growth inhibition): 1 µg/mL | MIC H. capsulatum G217B (Histoplasma capsulatum; strain G217B): 0.19 µg/mL (≈ 0.206 µM) | MIC H. capsulatum GS20 (Histoplasma capsulatum; strain GS20): 0.19 µg/mL (≈ 0.206 µM) | MIC C. neoformans 97-14 (Cryptococcus neoformans; strain 97-14, 50% growth inhibition, range = minimum and maximum of multiple assays): 0.5 to 2 µg/mL | MIC C. neoformans 11239 (Cryptococcus neoformans; strain 11239, 50% growth inhibition, range = minimum and maximum of multiple assays): 0.5 to 1 µg/mL | MIC C. neoformans 11240 (Cryptococcus neoformans; strain 11240, 50% growth inhibition, range = minimum and maximum of multiple assays): 0.5 to 1 µg/mL | MIC C. immitis RMS 2281 (C. immitis; strain RMS 2281): 1 µg/mL (≈ 1.08 µM) | MIC C. immitis RS (C. immitis; strain RS): 1 µg/mL (≈ 1.08 µM) | MIC C. immitis S46 (C. immitis; strain S46): 1 µg/mL (≈ 1.08 µM) | MIC C. albicans 24433 (Candida albicans; strain 24433, 50% growth inhibition, range = minimum and maximum of multiple assays): 2 to 4 µg/mL | MIC C. albicans 90028 (Candida albicans; strain 90028, 50% growth inhibition, range = minimum and maximum of multiple assays): 2 to 4 µg/mL | MIC0 C. albicans 90028 (Candida albicans; strain 90028, 95% growth inhibition): 1 µg/mL

CCC(C)n1ncn(-c2ccc(N3CCN(c4ccc(OCC5COC(Cn6cncn6)(c6ccc(Cl)cc6Cl)O5)cc4)CC3)cc2)c1=O (stereo not drawn) [Itraconazole, reference compound]
MIC (A. fumigatus ATCC 204305; Aspergillus fumigatus, ATCC204305, read-out: MIC0 A. fumigatus ATCC 204305): 0.58 µg/mL (≈ 0.822 µM) | MIC (Blastomyces dermatitidis; read-out: MIC0 Blastomyces dermatitidis 04-2167): 0.03 µg/mL (≈ 0.0425 µM) | MIC (Blastomyces dermatitidis; read-out: MIC0 Blastomyces dermatitidis 04-2508): 0.03 µg/mL (≈ 0.0425 µM) | MIC (Blastomyces dermatitidis; read-out: MIC0 Blastomyces dermatitidis 04-2915): 0.06 µg/mL (≈ 0.085 µM) | MIC (Blastomyces dermatitidis; read-out: MIC0 Blastomyces dermatitidis 05-106): 0.06 µg/mL (≈ 0.085 µM) | MIC (Blastomyces dermatitidis; read-out: MIC0 Blastomyces dermatitidis 05-186): 0.06 µg/mL (≈ 0.085 µM) | MIC (Blastomyces dermatitidis; read-out: MIC0 Blastomyces dermatitidis 05-1391): 0.03 µg/mL (≈ 0.0425 µM) | MIC (Blastomyces dermatitidis; read-out: MIC0 Blastomyces dermatitidis 05-1707): ≤ 0.015 µg/mL | MIC (Blastomyces dermatitidis; read-out: MIC0 Blastomyces dermatitidis 05-1820): ≤ 0.015 µg/mL | MIC (Blastomyces dermatitidis; read-out: MIC0 Blastomyces dermatitidis 05-1829): 0.06 µg/mL (≈ 0.085 µM) | MIC (Blastomyces dermatitidis; read-out: MIC0 Blastomyces dermatitidis 05-2020): ≤ 0.015 µg/mL | MIC (Blastomyces dermatitidis; read-out: MIC0 Blastomyces dermatitidis R-3529): ≤ 0.015 µg/mL | MIC (Blastomyces dermatitidis; read-out: MIC0 Blastomyces dermatitidis R-35629): ≤ 0.015 µg/mL | MIC (A. flavus ATCC 204304; Aspergillus flavus, ATCC204304, read-out: MIC0 A. flavus ATCC 204304): 0.47 µg/mL (≈ 0.666 µM) | MIC (Candida parapsilosis [2]): 0.25 µg/mL (≈ 0.354 µM) | MIC (Fusarium solani; Fusarium solani, read-out: MIC F. solani 96-1): > 4 µg/mL | MIC (S. apiospermum; read-out: MIC S. apiospermum 98-38): 1 to 4 µg/mL (≈ 1.42 to 5.67 µM) | MIC (S. apiospermum; read-out: MIC S. apiospermum 98-89): 1 to 2 µg/mL (≈ 1.42 to 2.83 µM) | MIC (Candida krusei; Pichia kudriavzevii, read-out: MIC0 C. krusei 6258): 0.25 µg/mL (≈ 0.354 µM) | MIC (Cryptococcus neoformans; read-out: MIC C. neoformans 97-14): 0.125 µg/mL (≈ 0.177 µM) | MIC (Cryptococcus neoformans; read-out: MIC C. neoformans 11239): 0.031 µg/mL (≈ 0.0439 µM) | MIC (Cryptococcus neoformans; read-out: MIC C. neoformans 11240): 0.313 µg/mL (≈ 0.444 µM) | MIC (Candida albicans; Candida albicans, read-out: MIC0 C. albicans 90028): 0.25 µg/mL (≈ 0.354 µM)

Source: US20070015823A1, “Ambruticin VS compounds” (priority 2004, published 2007)
